Calls of active or inactive are those of the source. The calls are words filed in the database; no cut-off is given here.
Columns and labels:
[1] = target: NAD(P)H dehydrogenase [quinone] 1 (Homo sapiens) (UniProt P15559); test: Substrate activity at NQO1 in human A549 cells assessed as induction of ROS-induced p38 phosphorylation at T180/Y182 after 3 hrs by Western blot analysis; format: cell-based
Homo sapiens [2] = species: Homo sapiens; test: Selectivity ratio for substrate activity at recombinant human NQO1 to substrate activity at human CPR
[3] = Solubility of the compound in diluted HCl buffer at pH 3; format: physicochemical
[4] = Effective permeability of the compound at pH 7.4 by PAMPA assay; format: ADME; conditions: read-out: Peff
HepG2 = test: Cytotoxicity against human HepG2 cells assessed as cell growth inhibition preincubated for 24 hrs followed by compound washout measured after 72 hrs by MTT assay; format: functional, cell-based
HCT-116 = test: Cytotoxicity against human HCT116 cells assessed as cell growth inhibition preincubated for 24 hrs followed by compound washout measured after 72 hrs by MTT assay; format: functional, cell-based
[5] = target: NAD(P)H dehydrogenase [quinone] 1 (Homo sapiens) (UniProt P15559); test: Substrate activity at NQO1 in human A549 cells assessed as induction of enzyme-catalyzed lipid peroxidation by measuring MDA equivalents per protein at 5 uM after 24 hrs by TBARS assay (reference value: 3.53 +/- 1.12 nmol/mg); format: cell-based
A549 [6] = test: Effect on total AKT protein levels in human A549 cells at 1 uM after 3 hrs by Western blot analysis relative to control; format: ADME, cell-based; conditions: a549, 3 h
A549 [7] = test: Effect on total AKT protein levels in human A549 cells at 5 uM after 3 hrs by Western blot analysis relative to control; format: ADME, cell-based; conditions: a549, 3 h
A549 [8] = test: Effect on total AKT protein levels in human A549 cells at 10 uM after 3 hrs by Western blot analysis relative to control; format: ADME, cell-based; conditions: a549, 3 h
A549 [9] = test: Effect on total AKT protein levels in human A549 cells at 10 uM after 3 hrs in presence of DIC by Western blot analysis relative to control; format: ADME, cell-based; conditions: a549, 3 h
[10] = target: NAD(P)H dehydrogenase [quinone] 1 (Homo sapiens) (UniProt P15559); test: Substrate activity at NQO1 in human A549 cells assessed as induction of ROS-induced Akt phosphorylation at S473 at 1 uM after 3 hrs by Western blot analysis relative to control; format: cell-based
[11] = target: NAD(P)H dehydrogenase [quinone] 1 (Homo sapiens) (UniProt P15559); test: Substrate activity at NQO1 in human A549 cells assessed as induction of ROS-induced Akt phosphorylation at S473 at 10 uM after 3 hrs in presence of NAC by Western blot analysis relative to control; format: cell-based
[12] = target: NAD(P)H dehydrogenase [quinone] 1 (Homo sapiens) (UniProt P15559); test: Substrate activity at NQO1 in human A549 cells assessed as induction of ROS-induced Akt phosphorylation at […] at 1 uM after 3 hrs by Western blot analysis relative to control; format: cell-based
[13] = target: NAD(P)H dehydrogenase [quinone] 1 (Homo sapiens) (UniProt P15559); test: Substrate activity at NQO1 in human A549 cells assessed as induction of ROS-induced Akt phosphorylation at […] at 10 uM after 3 hrs in presence of DIC by Western blot analysis relative to control; format: cell-based
[14] = target: NAD(P)H dehydrogenase [quinone] 1 (Homo sapiens) (UniProt P15559); test: Substrate activity at NQO1 in human A549 cells assessed as induction of ROS-induced JNK phosphorylation at 1 uM after 3 hrs by Western blot analysis relative to control; format: cell-based
[15] = target: NAD(P)H dehydrogenase [quinone] 1 (Homo sapiens) (UniProt P15559); test: Substrate activity at NQO1 in human A549 cells assessed as induction of ROS-induced JNK phosphorylation at 10 uM after 3 hrs by Western blot analysis relative to control; format: cell-based
[16] = target: NAD(P)H dehydrogenase [quinone] 1 (Homo sapiens) (UniProt P15559); test: Substrate activity at NQO1 in human A549 cells assessed as induction of ROS-induced JNK phosphorylation at 10 uM after 3 hrs in presence of NAC by Western blot analysis relative to control; format: cell-based
[17] = target: NAD(P)H dehydrogenase [quinone] 1 (Homo sapiens) (UniProt P15559); test: Substrate activity at NQO1 in human A549 cells assessed as induction of ROS-induced JNK phosphorylation at 10 uM after 3 hrs in presence of DIC by Western blot analysis relative to control; format: cell-based
A549 [18] = test: Effect on total p38 protein levels in human A549 cells at 10 uM after 3 hrs in presence of DIC by Western blot analysis relative to control; format: ADME, cell-based; conditions: a549, 3 h
[19] = target: NAD(P)H dehydrogenase [quinone] 1 (Homo sapiens) (UniProt P15559); test: Substrate activity at NQO1 in human A549 cells assessed as induction of ROS-induced p38 phosphorylation at T180/Y182 at 10 uM after 3 hrs in presence of NAC by Western blot analysis relative to control; format: cell-based
[20] = target: NAD(P)H dehydrogenase [quinone] 1 (Homo sapiens) (UniProt P15559); test: Substrate activity at NQO1 in human A549 cells assessed as induction of ROS-induced p38 phosphorylation at T180/Y182 at 10 uM after 3 hrs in presence of DIC by Western blot analysis relative to control; format: cell-based
A549 [21] = test: Effect on total ERK protein levels in human A549 cells at 5 uM after 3 hrs by Western blot analysis relative to control; format: ADME, cell-based; conditions: a549, 3 h
A549 [22] = test: Effect on total ERK protein levels in human A549 cells at 10 uM after 3 hrs by Western blot analysis relative to control; format: ADME, cell-based; conditions: a549, 3 h
A549 [23] = test: Effect on total ERK protein levels in human A549 cells at 10 uM after 3 hrs in presence of NAC by Western blot analysis relative to control; format: ADME, cell-based; conditions: a549, 3 h
[24] = target: NAD(P)H dehydrogenase [quinone] 1 (Homo sapiens) (UniProt P15559); test: Substrate activity at NQO1 in human A549 cells assessed as induction of ROS-induced ERK phosphorylation at 1 uM after 3 hrs by Western blot analysis relative to control; format: cell-based
[25] = target: NAD(P)H dehydrogenase [quinone] 1 (Homo sapiens) (UniProt P15559); test: Substrate activity at NQO1 in human A549 cells assessed as induction of ROS-induced ERK phosphorylation after 3 hrs by Western blot analysis; format: cell-based
A549 [26] = test: Induction of apoptosis in human A549 cells assessed as chromatin condensation after 24 hrs by DAPI-staining based microscopy; format: functional, cell-based
A549 [27] = test: Induction of apoptosis in human A549 cells assessed as increase in cleaved PARP expression after 24 hrs by Western blot analysis; format: functional, cell-based
A549 [28] = test: Induction of apoptosis in human A549 cells assessed as increase in cleaved PARP expression at 10 uM after 24 hrs in presence of NAC by Western blot analysis; format: functional, cell-based
A549 [29] = test: Induction of apoptosis in human A549 cells assessed as increase in cleaved PARP expression at 10 uM after 24 hrs in presence of DIC by Western blot analysis; format: functional, cell-based
A549 [30] = test: Antitumor activity against human A549 cells xenografted in athymic nude mouse assessed as tumor growth inhibition at 15 mg/kg, iv administered every other day for 3 weeks measured every day during compound dosing relative to control; format: functional; conditions: 504 h, read-out: TGI
A549 [31] = test: Antitumor activity against human A549 cells xenografted in athymic nude mouse assessed as tumor growth inhibition at 30 mg/kg, iv administered every other day for 3 weeks measured every day during compound dosing relative to control; format: functional; conditions: 504 h, read-out: TGI
Mus musculus = test: Toxicity in athymic nude mouse xenografted with human A549 cells assessed as reduction in body weight at 50 mg/kg, iv administered every other day for 3 weeks relative to control; format: organism-based; parameters: scale not given: the % may be the effect or the level left; conditions: in vivo, 504 h
A549 [32] = test: Induction of ROS levels in human A549 cells xenografted in athymic nude mouse at 15 to 30 mg/kg, iv administered every other day for 3 weeks by DCFH-DA-probe based flow cytometry; format: functional, organism-based
A549 [33] = test: Reduction of intracellular NADPH levels in human A549 cells xenografted in athymic nude mouse at 15 to 30 mg/kg, iv administered every other day for 3 weeks by fluorescent NADP+/NADPH detection based assay; format: functional, organism-based
Homo sapiens [34] = species: Homo sapiens; test: Selectivity ratio for substrate activity at recombinant human NQO1 to substrate activity at CBR (unknown origin)

NAD(P)H dehydrogenase [quinone] 1 (Homo sapiens), sequence (P15559 whole entry): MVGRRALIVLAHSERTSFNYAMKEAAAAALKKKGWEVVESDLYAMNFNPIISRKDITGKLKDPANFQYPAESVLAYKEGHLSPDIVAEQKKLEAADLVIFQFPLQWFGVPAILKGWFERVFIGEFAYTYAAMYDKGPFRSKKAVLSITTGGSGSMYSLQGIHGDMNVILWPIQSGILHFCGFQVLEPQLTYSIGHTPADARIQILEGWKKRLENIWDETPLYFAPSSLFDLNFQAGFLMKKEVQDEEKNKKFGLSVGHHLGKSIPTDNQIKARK

Cc1cc2c(cc1C)-c1oc(CNc3ccc(CN4CCOCC4)cc3)c(C)c1C(=O)C2=O
Activity [1]: Dose-dependent effect
Selectivity ratio (Homo sapiens [2]): 20.8
solubility [3]: > 1000 µg/mL
Papp [4]: 46.5 ×10⁻⁶ cm/s
IC50 (HepG2): 4.3 µM
IC50 (HCT-116): 4.9 µM
Activity [5]: 10.3 nmol/mg
fold change (FC) (A549 [6]): 1.07
fold change (FC) (A549 [7]): 1.14
fold change (FC) (A549 [8]): 1.3
fold change (FC) (A549 [9]): 1.15
fold change (FC) [10]: 1.51
fold change (FC) [11]: 0.32
fold change (FC) [12]: 2.38
fold change (FC) [13]: 1.96
fold change (FC) [14]: 17.4
fold change (FC) [15]: 30.5
fold change (FC) [16]: 12.5
fold change (FC) [17]: 7.1
fold change (FC) (A549 [18]): 1.03
fold change (FC) [19]: 11.2
fold change (FC) [20]: 9.2
fold change (FC) (A549 [21]): 0.97
fold change (FC) (A549 [22]): 1.02
fold change (FC) (A549 [23]): 1.11
fold change (FC) [24]: 2
Activity [25]: Dose-dependent effect
Activity (A549 [26]): Dose-dependent effect
Activity (A549 [27]): Dose-dependent effect
Activity (A549 [28]): inactive
Activity (A549 [29]): inactive
inhibition in vivo at 15 mg/kg (A549 [30]): 65.8%
inhibition in vivo at 30 mg/kg (A549 [31]): 87.1%
Activity (Mus musculus): 18%
Activity (A549 [32]): Active
Activity (A549 [33]): Active
Selectivity ratio (Homo sapiens [34]): 8.49
